Measurements reported in patent publication US12077503B2, “Substituted cyclic amides and their use as herbicides” (FMC CORPORATION, priority 2015, dated 2024).

Experiments:
Type in all cases: in vivo
[1] = tested on: sedge, umbrella (small-flower umbrella sedge, Cyperus difformis); assay: Test B flooded paddy test; conditions: Flood, 0 to 100 scale where 0 is no effect and 100 is complete control, 13 to 15 d
Summary of the method: (§1)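 Rating scale 0–100 (visual, vs untreated controls) after a 13–15 d greenhouse period; application to the flood layer, 3 cm above soil and maintained; plants at 2-leaf stage when treated.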

[2] = tested on: ducksalad (Heteranthera limosa); assay: Test B flooded paddy test; conditions: Flood, 0 to 100 scale where 0 is no effect and 100 is complete control, 13 to 15 d
Summary of the method: as §1

[3] = tested on: barnyardgrass (Echinochloa crus-galli); assay: Test B flooded paddy test; conditions: Flood, 0 to 100 scale where 0 is no effect and 100 is complete control, 13 to 15 d
Summary of the method: as §1

rice (Oryra sativa) = assay: Test B flooded paddy test; conditions: Flood, 0 to 100 scale where 0 is no effect and 100 is complete control, 13 to 15 d
Summary of the method: as §1

[4] = tested on: blackgrass (Alopecurus myosuroides); assay: Test A postemergence; conditions: postemergence; for Blackgrass plant response rating: 125 g ai/ha, visual injury rating on 0 to 100 scale (0 no effect, 100 complete control), approx. 10 d; for Plant response rating, Blackgrass: 500 g ai/ha, 0 to 100 scale, 0 no effect, 100 complete control
Summary of the method: (§2)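 Preemergence soil spray on seeded pots or post-emergence spray on 1–2 leaf plants, in loam–sand blend. Greenhouse ~10 d. Visual rating 0–100 against untreated plants.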

[5] = tested on: ragweed (common ragweed, Ambrosia elatior); assay: Test A postemergence; conditions: postemergence; for Ragweed plant response rating: 125 g ai/ha, visual injury rating on 0 to 100 scale (0 no effect, 100 complete control), approx. 10 d; for Plant response rating, Ragweed: 500 g ai/ha, 0 to 100 scale, 0 no effect, 100 complete control
Summary of the method: as §2

[6] = tested on: ryegrass, Italian (Italian ryegrass, Lolium multiflorum); assay: Test A postemergence; conditions: postemergence; for Ryegrass, Italian plant response rating: 125 g ai/ha, visual injury rating on 0 to 100 scale (0 no effect, 100 complete control), approx. 10 d; for Plant response rating, Ryegrass, Italian: 500 g ai/ha, 0 to 100 scale, 0 no effect, 100 complete control
Summary of the method: as §2

corn (Zea mays) = assay: Test A postemergence; conditions: postemergence; for Corn plant response rating: 125 g ai/ha, visual injury rating on 0 to 100 scale (0 no effect, 100 complete control), approx. 10 d; for Plant response rating, Corn: 500 g ai/ha, 0 to 100 scale, 0 no effect, 100 complete control
Summary of the method: as §2

[7] = tested on: pigweed (Amaranthus retroflexus); assay: Test A postemergence; conditions: postemergence; for Pigweed plant response rating: 125 g ai/ha, visual injury rating on 0 to 100 scale (0 no effect, 100 complete control), approx. 10 d; for Plant response rating, Pigweed: 500 g ai/ha, 0 to 100 scale, 0 no effect, 100 complete control
Summary of the method: as §2

Kochia (Kochia scoparia) [8] = assay: Test A postemergence; conditions: postemergence; for Kochia plant response rating: 125 g ai/ha, visual injury rating on 0 to 100 scale (0 no effect, 100 complete control), approx. 10 d; for Plant response rating, Kochia: 500 g ai/ha, 0 to 100 scale, 0 no effect, 100 complete control
Summary of the method: as §2

[9] = tested on: wheat (Triticum aestivum); assay: Test A postemergence; conditions: postemergence; for Wheat plant response rating: 125 g ai/ha, visual injury rating on 0 to 100 scale (0 no effect, 100 complete control), approx. 10 d; for Plant response rating, Wheat: 500 g ai/ha, 0 to 100 scale, 0 no effect, 100 complete control
Summary of the method: as §2

[10] = tested on: giant foxtail (Setaria faberii); assay: Test A postemergence; conditions: postemergence; for Foxtail, Giant plant response rating: 125 g ai/ha, visual injury rating on 0 to 100 scale (0 no effect, 100 complete control), approx. 10 d; for Plant response rating, Foxtail, Giant: 500 g ai/ha, 0 to 100 scale, 0 no effect, 100 complete control
Summary of the method: as §2

[11] = tested on: barnyardgrass (Echinochloa crus-galli); assay: Test A postemergence; conditions: postemergence; for Barnyardgrass plant response rating: 125 g ai/ha, visual injury rating on 0 to 100 scale (0 no effect, 100 complete control), approx. 10 d; for Plant response rating, Barnyardgrass: 500 g ai/ha, 0 to 100 scale, 0 no effect, 100 complete control
Summary of the method: as §2

[12] = tested on: Galium (catchweed bedstraw, Galium aparine); assay: Test A postemergence; conditions: postemergence; for Galium plant response rating: 125 g ai/ha, visual injury rating on 0 to 100 scale (0 no effect, 100 complete control), approx. 10 d; for Plant response rating, Galium: 500 g ai/ha, 0 to 100 scale, 0 no effect, 100 complete control
Summary of the method: as §2

[13] = tested on: ragweed (common ragweed, Ambrosia elatior); assay: Test A preemergence; conditions: for Plant response rating, Ragweed: 125 g ai/ha, preemergence, 0 to 100 scale (0 no effect, 100 complete control); for Ragweed plant response rating (0 to 100 scale, 0 is no effect, 100 is complete control): Preemergence, 500 g ai/ha, visual injury approx. 10 d
Summary of the method: as §2

[14] = tested on: ryegrass, Italian (Italian ryegrass, Lolium multiflorum); assay: Test A preemergence; conditions: for Plant response rating, Ryegrass, Italian: 125 g ai/ha, preemergence, 0 to 100 scale (0 no effect, 100 complete control); for Ryegrass, Italian plant response rating (0 to 100 scale, 0 is no effect, 100 is complete control): Preemergence, 500 g ai/ha, visual injury approx. 10 d
Summary of the method: as §2

[15] = tested on: pigweed (Amaranthus retroflexus); assay: Test A preemergence; conditions: for Plant response rating, Pigweed: 125 g ai/ha, preemergence, 0 to 100 scale (0 no effect, 100 complete control); for Pigweed plant response rating (0 to 100 scale, 0 is no effect, 100 is complete control): Preemergence, 500 g ai/ha, visual injury approx. 10 d
Kochia (Kochia scoparia) [16] = assay: Test A preemergence; conditions: for Plant response rating, Kochia: 125 g ai/ha, preemergence, 0 to 100 scale (0 no effect, 100 complete control); for Kochia plant response rating (0 to 100 scale, 0 is no effect, 100 is complete control): Preemergence, 500 g ai/ha, visual injury approx. 10 d
Summary of the method: as §2

[17] = tested on: giant foxtail (Setaria faberii); assay: Test A preemergence; conditions: for Plant response rating, Foxtail, Giant: 125 g ai/ha, preemergence, 0 to 100 scale (0 no effect, 100 complete control); for Foxtail, Giant plant response rating (0 to 100 scale, 0 is no effect, 100 is complete control): Preemergence, 500 g ai/ha, visual injury approx. 10 d
Summary of the method: as §2

[18] = tested on: barnyardgrass (Echinochloa crus-galli); assay: Test A preemergence; conditions: for Plant response rating, Barnyardgrass: 125 g ai/ha, preemergence, 0 to 100 scale (0 no effect, 100 complete control); for Barnyardgrass plant response rating (0 to 100 scale, 0 is no effect, 100 is complete control): Preemergence, 500 g ai/ha, visual injury approx. 10 d
Summary of the method: as §2

| SMILES | Blackgrass plant response rating [4] | Plant response rating, Blackgrass [4] | Ragweed plant response rating [5] | Plant response rating, Ragweed [5] | Ryegrass, Italian plant response rating [6] | Plant response rating, Ryegrass, Italian [6] | Corn plant response rating (corn (Zea mays)) | Plant response rating, Corn (corn (Zea mays)) | Pigweed plant response rating [7] | Plant response rating, Pigweed [7] | Kochia plant response rating (Kochia (Kochia scoparia) [8]) | Plant response rating, Kochia (Kochia (Kochia scoparia) [8]) | Wheat plant response rating [9] | Plant response rating, Wheat [9] | Foxtail, Giant plant response rating [10] | Plant response rating, Foxtail, Giant [10] | Barnyardgrass plant response rating [11] | Plant response rating, Barnyardgrass [11] | Galium plant response rating [12] | Plant response rating, Galium [12] | also measured |
| --- | --- | --- | --- | --- | --- | --- | --- | --- | --- | --- | --- | --- | --- | --- | --- | --- | --- | --- | --- | --- | --- |
| Cc1cc(NC(=O)C2C(=O)NCC2c2cccc(OC(F)F)c2)ccc1F (stereo not drawn) [Compound 424] | 0 | 0 | 0 | 0 | 0 | 0 | 0 | 0 | 0 | 0 | 0 | 0 | 0 | 0 | 40 | 70 | 50 | 70 | 0 | 0 | Plant response rating, Sedge, Umbrella ([1]; 500 g ai/ha): 0; Plant response rating, Ducksalad ([2]; 500 g ai/ha): 30; Plant response rating, Barnyardgrass ([3]; 500 g ai/ha): 0; Plant response rating, Rice (rice (Oryra sativa); 500 g ai/ha): 0; Plant response rating, Ragweed [13]: 0; Ragweed plant response rating (0 to 100 scale, 0 is no effect, 100 is complete control) [13]: 0; Plant response rating, Ryegrass, Italian [14]: 0; Ryegrass, Italian plant response rating (0 to 100 scale, 0 is no effect, 100 is complete control) [14]: 0; Plant response rating, Pigweed [15]: 0; Pigweed plant response rating (0 to 100 scale, 0 is no effect, 100 is complete control) [15]: 0; Plant response rating, Kochia (Kochia (Kochia scoparia) [16]): 0; Kochia plant response rating (0 to 100 scale, 0 is no effect, 100 is complete control) (Kochia (Kochia scoparia) [16]): 0; Plant response rating, Foxtail, Giant [17]: 70; Foxtail, Giant plant response rating (0 to 100 scale, 0 is no effect, 100 is complete control) [17]: 90; Plant response rating, Barnyardgrass [18]: 30; Barnyardgrass plant response rating (0 to 100 scale, 0 is no effect, 100 is complete control) [18]: 90 |
| COc1c(F)ccc(NC(=O)C2C(=O)N(C)CC2c2cccc(OC(F)(F)C(F)F)c2)c1F (stereo not drawn) [Compound 430] | 20 | 70 | 0 | 30 | 30 | 50 | 50 | 70 | 30 | 50 | 20 | 50 | 20 | 50 | 80 | 80 | 80 | 90 | 50 | 60 | Plant response rating, Sedge, Umbrella ([1]; 250 g ai/ha): 0; Plant response rating, Ducksalad ([2]; 250 g ai/ha): 100; Plant response rating, Barnyardgrass ([3]; 250 g ai/ha): 65; Plant response rating, Rice (rice (Oryra sativa); 250 g ai/ha): 20; Plant response rating, Ragweed [13]: 30; Ragweed plant response rating (0 to 100 scale, 0 is no effect, 100 is complete control) [13]: 50; Plant response rating, Ryegrass, Italian [14]: 40; Ryegrass, Italian plant response rating (0 to 100 scale, 0 is no effect, 100 is complete control) [14]: 50; Plant response rating, Pigweed [15]: 0; Pigweed plant response rating (0 to 100 scale, 0 is no effect, 100 is complete control) [15]: 50; Plant response rating, Kochia (Kochia (Kochia scoparia) [16]): 30; Kochia plant response rating (0 to 100 scale, 0 is no effect, 100 is complete control) (Kochia (Kochia scoparia) [16]): 70; Plant response rating, Foxtail, Giant [17]: 90; Foxtail, Giant plant response rating (0 to 100 scale, 0 is no effect, 100 is complete control) [17]: 90; Plant response rating, Barnyardgrass [18]: 80; Barnyardgrass plant response rating (0 to 100 scale, 0 is no effect, 100 is complete control) [18]: 90 |
| CN1CC(c2ccc(Cl)cc2)C(C(=O)Nc2ccccc2F)C1=O (stereo not drawn) [Compound 433] | 30 | 40 | 0 | 50 | 30 | 60 | 0 | 30 | 20 | 20 | 40 | 50 | 30 | 60 | 80 | 80 | 90 | 90 | 50 | 50 | Plant response rating, Sedge, Umbrella ([1]; 250 g ai/ha): 0; Plant response rating, Ducksalad ([2]; 250 g ai/ha): 98; Plant response rating, Barnyardgrass ([3]; 250 g ai/ha): 70; Plant response rating, Rice (rice (Oryra sativa); 250 g ai/ha): 0; Plant response rating, Ragweed [13]: 70; Ragweed plant response rating (0 to 100 scale, 0 is no effect, 100 is complete control) [13]: 60; Plant response rating, Ryegrass, Italian [14]: 20; Ryegrass, Italian plant response rating (0 to 100 scale, 0 is no effect, 100 is complete control) [14]: 60; Plant response rating, Pigweed [15]: 20; Pigweed plant response rating (0 to 100 scale, 0 is no effect, 100 is complete control) [15]: 70; Plant response rating, Kochia (Kochia (Kochia scoparia) [16]): 70; Kochia plant response rating (0 to 100 scale, 0 is no effect, 100 is complete control) (Kochia (Kochia scoparia) [16]): 80; Plant response rating, Foxtail, Giant [17]: 90; Foxtail, Giant plant response rating (0 to 100 scale, 0 is no effect, 100 is complete control) [17]: 90; Plant response rating, Barnyardgrass [18]: 90; Barnyardgrass plant response rating (0 to 100 scale, 0 is no effect, 100 is complete control) [18]: 90 |
